The target of experiment [1] is Cyclin D1 and cyclin-dependent kinase 4 (CDK4) (Homo sapiens, UniProt P11802). The experiment in a line: CDK4 substrate phosphorylation assay (phosphorylation of GST-Rb protein, [33P]-ATP). It counts as biochemical. As to conditions: read-out: CDK4 inhibition. On the procedure:
The compounds of the present invention have valuable pharmacologic properties. Different compounds from this class are particularly effective at inhibiting CDK2 and/or CDK4 enzymes at concentrations, which range from 0.0001 to 1 μM and additionally show specificity relative to other kinases. Substrate phosphorylation assays were carried out as follows.
Cyclin D1 and cyclin-dependent kinase 4 were expressed utilizing a baculovirus expression system. The catalytic activity of CDK4 protein was assayed by measuring the phosphorylation of Rb protein. A truncated Rb protein (residues 773-928 of the native retinoblastoma protein, fused to glutathione S-transferase to facilitate purification) was used as the phosphoryl acceptor. The assay conditions were 100 mM HEPES (N-[2-hydroxyethyl]piperzine-N′-[2-ethanesulfonic acid]), pH 7.5, 0.5 μM GST-Rb protein, 1 μCi/mL [^33P]-ATP (1 nM-20 μM), 5-20 mM MgCl2, 2.5 mM EDTA, 1 mM dithiothreitol, 0.2 mg/mL bovine serum albumin, 2% (v/v) dimethyl sulfoxide (DMSO), CDK4 enzyme (5-50 nM) in a final volume of 50 μL Reactions were incubated for time periods of 10-60 min at 30° C. and terminated by the addition of 50 μL quench (1 mM ATP/100 mM EDTA, pH 7.0). Detection of protein phosphorylation was accomplished by scintillation counting following collection of protein in 96 well plates coated with Glutathione or trapping of protein onto phosphocellulose filters. Counts detected by these methodologies minus the appropriate background were assumed to be proportional to the reaction initial rates. […] IC50s were determined by a least squares fit to the equation CPM=Vmax*(1-([I]/(K+[I])))+nsb, or pIC50s were determined by a fit to the equation CPM=nsb+(Vmax−nsb)/(1+(x/10^x−pIC50)), where nsb are the background counts.

Experiment [2] has as its system chemotherapy-induced alopecia. The experiment in a line: Neonatal rat model of chemotherapy-induced alopecia. It counts as in vivo, Sprague Dawley rats. To be noted: compounds in 100% DMSO applied topically to the scalp prior to chemotherapy; scored at day 21. An excerpt: Animal Model for Chemoprotection
Neonatal rat model of chemotherapy-induced alopecia: Time-pregnant female Sprague Dawley rats were purchased from Charles River Breeding Laboratories. Rat pups born on the same day were randomized at birth to 15 or 16 pups/mom/cage and were housed with moms during the study period. Each experimental group consisted of either 5 or 8 rats. For the etoposide model of CIA, rat pups received etoposide (VePesid, Bristol Laboratories Oncology Products, Princeton, N.J.) 6 mg/kg, ip, at 13 days of age (23). […] Compounds were formulated in 100% DMSO and applied topically to the scalp, 50 μL per application. Pups were treated with two topical applications of compounds 10 hours and 4 hours (t=−10, −4 hours) on both days 12 and 13 prior to chemotherapy administration. Pups were separated from mom during the topical application dosing period to prevent grooming and removal of compound. […] Inhibitor efficacy data was analyzed by comparing the % of drug-treated responders and the % of vehicle-treated responders. The amount of hair present on rat scalp at day 21 were scored and averaged for each inhibitor treated rat and ranked as +, ++ and +++.

The next experiment deals with CDK2 (Homo sapiens, UniProt P24941). The experiment in a line: CDK2 substrate phosphorylation assay (biotinylated peptide, [g-32P]ATP). It counts as biochemical. As to conditions: read-out: CDK2 inhibition.

Sequence of Cyclin D1 and cyclin-dependent kinase 4 (CDK4) (P11802 whole entry, species assumed): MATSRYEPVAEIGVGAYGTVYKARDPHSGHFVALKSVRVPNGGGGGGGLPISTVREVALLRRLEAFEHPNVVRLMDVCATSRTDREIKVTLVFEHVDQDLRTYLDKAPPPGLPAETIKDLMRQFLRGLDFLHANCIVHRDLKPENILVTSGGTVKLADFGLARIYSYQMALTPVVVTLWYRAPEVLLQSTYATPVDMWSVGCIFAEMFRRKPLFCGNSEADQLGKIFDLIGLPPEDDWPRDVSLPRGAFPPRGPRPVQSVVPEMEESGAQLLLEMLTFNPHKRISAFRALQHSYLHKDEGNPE
Sequence of Cyclin D1 and cyclin-dependent kinase 4 (CDK4) (P24385 whole entry partner, species assumed): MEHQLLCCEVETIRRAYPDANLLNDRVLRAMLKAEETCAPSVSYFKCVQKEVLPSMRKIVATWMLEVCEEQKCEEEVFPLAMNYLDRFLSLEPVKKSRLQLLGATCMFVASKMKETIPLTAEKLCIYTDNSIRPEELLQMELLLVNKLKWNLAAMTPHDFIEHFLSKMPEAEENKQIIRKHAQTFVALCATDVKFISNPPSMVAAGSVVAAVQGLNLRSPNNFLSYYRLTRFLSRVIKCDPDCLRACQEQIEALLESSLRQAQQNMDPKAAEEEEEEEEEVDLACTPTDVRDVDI
Experimental for CDK2: CDK2 was expressed utilizing a baculovirus expression system and was partially purified to comprise 20-80% of total protein, with no detectable competing reactions present. […] The buffer employed in enzyme assay was 100 mM HEPES pH 7.5 containing 0.1 mg/mL BSA and 5% DMSO. Inhibitors were diluted in 100% DMSO prior to addition into the assay. Detection of peptide phosphorylation was accomplished by scintillation counting following either collection of peptide onto phosphocellulose filters (for reactions stopped with acetic acid), collection of peptide in wells of 96 well plates coated with Streptavidin (Pierce) (reactions were stopped with EDTA), or addition of Avidin coated Scintillant impregnated beads (Scintillation Proximity Assays from Amersham, reactions were stopped with EDTA). […] Radioactivity was determined by liquid scintillation counting.

For `N#Cc1cccc(Nc2nccc(-c3cnn4ncccc34)n2)c1` [Example 7, 3-[(4-Pyrazolo[1,5-b]pyridazin-3-yl-2-pyrimidinyl)amino]benzonitrile], the IC50 (in experiment [1]; on CDK2) was below 100 nM in each case. In addition, the “Rank (amount of hair present on rat scalp at day 21)” value (shortened to “Rank”) in experiment [2] is “+++”.

As to `O=C1CCCN1CCCNc1nccc(-c2cnn3ncccc23)n1` [Example 22, 1-{3-[(Pyrazolo[1,5-b]pyridazin-3-yl-2-pyrimidinyl)amino]propyl}-2-pyrrolidinone], the IC50 (in experiment [1]; at CDK2) was below 100 nM throughout.

With `COc1ccc2c(-c3ccnc(NC4CC4)n3)cnn2n1` [Example 36, N-Cyclopropyl-4-(6-methoxypyrazolo[1,5-b]pyridazin-3-yl)-2-pyrimidinamine], the IC50 (in experiment [1]; at CDK2) was below 1000 nM each time.

As to `NS(=O)(=O)c1ccc(Nc2nccc(-c3cnn4ncccc34)n2)cc1` [Example 62, N-(4-aminosulfonylphenyl)-4-pyrazolo[1,5-b]pyridazin-3-yl-2-pyrimidinamine], the IC50 at CDK2 is below 100 nM.

As to `Clc1ccc(Nc2nccc(-c3cnn4ncccc34)n2)cc1` [Example 5, N-(4-Chlorophenyl)pyrazolo[1,5-b]pyridazin-3-yl-2-pyrimidinamine], the IC50 (in experiment [1]; at CDK2) was below 100 nM throughout.

Consider `c1cc(Nc2nccc(-c3cnn4ncccc34)n2)cc(-c2cnco2)c1` [Example 14, N-[3-(1,3-Oxazol-5-yl)phenyl]-4-pyrazolo[1,5-b]pyridazin-3-yl-2-pyrimidinamine], for which the IC50 (in experiment [1]; on CDK2) was below 100 nM each time. In addition, in experiment [2], the “Rank” value was “+”.

Consider `Cc1cc(Nc2nccc(-c3cnn4ncccc34)n2)ccc1N1CCN(C)CC1` [Example 25, N-[3-Methyl-4-(4-methyl-1-piperazinyl)phenyl]-4-pyrazolo[1,5-b]pyridazin-3-yl-2-pyrimidinamine], for which the IC50 (in experiment [1]; at CDK2) was below 100 nM in each case.

In the case of `Clc1ccccc1-c1ccc2c(-c3ccnc(NC4CC4)n3)cnn2n1` [Example 42, 4-[6-(2-Chlorophenyl)pyrazolo[1,5-b]pyridazin-3-yl]-N-cyclopropyl-2-pyrimidinamine], the IC50 (in experiment [1]; at CDK2) was below 1000 nM each time.

With `CN1CCN(c2ccc(Nc3nccc(-c4cnn5ncccc45)n3)cc2Cl)CC1` [Example 23, N-[3-Chloro-4-(4-methyl-1-piperazinyl)phenyl]-4-pyrazolo[1,5-b]pyridazin-3-yl-2-pyrimidinamine], the IC50 (in experiment [1]; on CDK2) was below 100 nM throughout. Moreover, in experiment [2], the “Rank” value is listed as “+++”.

As to `O=[N+]([O-])c1cccc(Nc2nccc(-c3cnn4ncccc34)n2)c1` [Example 10, N-(3-Nitrophenyl)-4-pyrazolo[1,5-b]pyridazin-3-yl-2-pyrimidinamine], the IC50 (in experiment [1]; on CDK2) was below 100 nM throughout.

As for `COc1cc(Nc2nccc(-c3cnn4ncccc34)n2)cc(C(F)(F)F)c1` [Example 57], the “Rank” value in experiment [2] was “+”.

Turning to `c1cnn2ncc(-c3ccnc(NC4CC4)n3)c2c1` [Example 1, N-Cyclopropyl-4-pyrazolo[1,5-b]pyridazin-3-yl-2-pyrimidinamine], the IC50 in experiment [1] was below 100 nM.

`CN(C)c1ccc(Nc2nccc(-c3cnn4nc(N5CCOCC5)ccc34)n2)cc1` [Example 53, N-^1-N^1-Dimethly-N^4-{4-[6-(4-morpholinyl)pyrazolo[1,5-b]pyridazin-3-yl]-2-pyrimidinyl}-1,4-benzenediamine]: the IC50 was below 100 nM in experiment [1] and below 1000 nM at CDK2.

Turning to `FC(F)(F)c1cccc(Nc2nccc(-c3cnn4ncccc34)n2)c1` [Example 9, 4-Pyrazolo[1,5-b]pyridazin-3-yl-N-[3-(trifluoromethyl)phenyl]-2-pyrimidinamine], the IC50 (in experiment [1]; on CDK2) was below 100 nM throughout. The “Rank” value in experiment [2] is listed as “++”.

The values are drawn from patent US7279473B2, “Pyrazolopyridazine derivatives” (SmithKline Beecham Corporation, priority 2001, dated 2007).
